Here are results for six molecules from ChEMBL document CHEMBL1201862, “PubChem BioAssay data set” (2004).

Experiment [1] deals with T1, Sentrin-specific protease 1 (Homo sapiens, UniProt Q9P0U3). The experiment can be described thus: Dose response confirmation of small molecule inhibitors of the catalytic domain of the SUMO protease, SENP1 in a FRET assay. The class given is functional. The note with it: read-out: IC50_Mean.
The target of experiment [2] is T1, Sentrin-specific protease 1. The experiment can be described thus: SENP1 catalytic domain blockers, concentration series – biochemical, kinetic FRET, dose response (AID 651697). In kind it is functional. To be noted: read-out: IC50_Mean.
Experiment [3] can be described thus: Luminescence Cell-Based Dose Response to Identify Activators of 5'UTR Stem-Loop Driven Prion Protein mRNA Translation in H4-C Neuroglioblastoma Cells. [Related pubchem assays: 1829 (Project Summary), 1814 (Primary HTS)]. In kind it is functional.
The test system of experiment [4] is H4. The experiment can be described thus: Luminescence Cell-Based Dose Response HTS to Identify Activators of 5'UTR Stem-Loop Driven Prion Protein mRNA Translation in H4 Neuroglioblastoma Cells. [Related pubchem assays: 1829 (Project Summary), 1814 (Primary HTS)]. The class given is functional. The note with it: Homo sapiens.
Experiment [5] in a line: Luminescence Cell-Based Dose Response HTS to Identify Activators of Luciferase Translation or Activity in H4 […] Cells. [Related pubchem assays: 1829 (Project Summary), 1814 (Primary HTS)]. In kind it is functional.
Experiment [6] addresses Broad substrate specificity ATP-binding cassette transporter ABCG2 (Homo sapiens, UniProt Q9UNQ0). The experiment can be described thus: blockers of JC-1 export by ABCG2 – Ig-MXP3 cells, flow cytometry, dose response (AID 1690). The class given is functional. (In flow cytometry, cells or beads pass a laser one at a time.)
For experiment [7], the target named is ATP-dependent translocase ABCB1 (Homo sapiens, UniProt P08183). The experiment can be described thus: inhibition of P-gp mediated JC-1 efflux – Jurkat-DNR cells, flow cytometry, dose response (AID 1689). In kind it is functional.
Chain of ATP-dependent translocase ABCB1 (P08183 whole entry): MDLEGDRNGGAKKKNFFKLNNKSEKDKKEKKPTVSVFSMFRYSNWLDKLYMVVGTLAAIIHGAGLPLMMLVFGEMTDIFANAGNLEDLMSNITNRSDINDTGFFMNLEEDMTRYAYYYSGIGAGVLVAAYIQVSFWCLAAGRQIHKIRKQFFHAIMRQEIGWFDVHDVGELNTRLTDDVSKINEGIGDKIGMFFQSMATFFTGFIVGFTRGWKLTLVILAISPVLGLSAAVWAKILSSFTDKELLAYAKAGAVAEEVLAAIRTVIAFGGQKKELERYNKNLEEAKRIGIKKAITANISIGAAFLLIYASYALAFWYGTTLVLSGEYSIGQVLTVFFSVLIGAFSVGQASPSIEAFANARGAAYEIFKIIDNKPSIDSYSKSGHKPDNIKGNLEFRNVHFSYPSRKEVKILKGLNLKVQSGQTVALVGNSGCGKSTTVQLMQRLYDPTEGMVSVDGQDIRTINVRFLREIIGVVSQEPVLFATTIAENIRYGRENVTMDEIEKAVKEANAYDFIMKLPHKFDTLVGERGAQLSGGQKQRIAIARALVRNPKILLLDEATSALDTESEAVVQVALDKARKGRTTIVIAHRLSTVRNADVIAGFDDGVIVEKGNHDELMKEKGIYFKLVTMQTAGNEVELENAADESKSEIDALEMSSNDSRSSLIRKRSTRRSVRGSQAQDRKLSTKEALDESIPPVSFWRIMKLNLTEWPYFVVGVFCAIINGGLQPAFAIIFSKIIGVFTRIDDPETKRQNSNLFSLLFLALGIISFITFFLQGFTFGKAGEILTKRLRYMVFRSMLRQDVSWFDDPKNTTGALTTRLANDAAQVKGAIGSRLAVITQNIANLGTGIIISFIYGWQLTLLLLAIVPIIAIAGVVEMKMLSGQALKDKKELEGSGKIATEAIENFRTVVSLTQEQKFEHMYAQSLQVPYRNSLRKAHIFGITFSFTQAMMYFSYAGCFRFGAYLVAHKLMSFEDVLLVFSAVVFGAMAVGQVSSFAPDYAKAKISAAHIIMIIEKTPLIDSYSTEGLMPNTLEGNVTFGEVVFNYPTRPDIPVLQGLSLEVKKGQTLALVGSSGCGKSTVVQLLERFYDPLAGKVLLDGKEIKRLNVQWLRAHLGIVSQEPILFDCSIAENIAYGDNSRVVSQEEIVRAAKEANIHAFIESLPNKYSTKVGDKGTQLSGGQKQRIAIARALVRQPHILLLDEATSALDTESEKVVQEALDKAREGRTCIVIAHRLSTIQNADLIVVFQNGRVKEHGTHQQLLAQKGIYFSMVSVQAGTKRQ
The target of experiment [8] is T2, Protein skinhead-1 (Caenorhabditis elegans, UniProt P34707).
T2 sequence (P34707 whole entry): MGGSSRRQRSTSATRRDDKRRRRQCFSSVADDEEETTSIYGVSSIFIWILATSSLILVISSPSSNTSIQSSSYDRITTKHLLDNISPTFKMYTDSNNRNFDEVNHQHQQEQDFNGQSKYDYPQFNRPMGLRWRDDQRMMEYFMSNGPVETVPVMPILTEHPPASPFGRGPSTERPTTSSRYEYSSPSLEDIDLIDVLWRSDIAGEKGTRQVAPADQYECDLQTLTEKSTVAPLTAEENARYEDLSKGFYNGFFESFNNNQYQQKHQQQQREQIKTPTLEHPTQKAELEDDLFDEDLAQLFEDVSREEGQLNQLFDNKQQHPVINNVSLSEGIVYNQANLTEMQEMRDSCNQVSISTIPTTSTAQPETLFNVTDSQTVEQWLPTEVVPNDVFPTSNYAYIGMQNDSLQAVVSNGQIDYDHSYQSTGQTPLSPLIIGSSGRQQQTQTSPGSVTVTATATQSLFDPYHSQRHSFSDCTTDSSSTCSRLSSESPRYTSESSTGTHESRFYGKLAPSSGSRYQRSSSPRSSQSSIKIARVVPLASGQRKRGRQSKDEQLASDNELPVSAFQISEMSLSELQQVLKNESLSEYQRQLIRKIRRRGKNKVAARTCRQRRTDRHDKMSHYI
The class given is functional.

A short description of experiment [9]: Luminescence Cell-Based Dose Response to Identify Activators of Luciferase Translation or Activity in H4-C Neuroglioblastoma Cells. [Related pubchem assays: 1829 (Project Summary), 1814 (Primary HTS)]. The class given is functional.
Experiment [10] can be described thus: Luminescence Cell-Based Dose Confirmation to Identify Activators of 5'UTR Stem-Loop Driven Alpha-Synuclein mRNA Translation in H4 Neuroglioblastoma Cells. [Related pubchem assays: 1829 (Project Summary), 1814 (Primary HTS)]. The class given is functional.
The target in experiment [11] is T3, Small ubiquitin-related modifier 1 (Homo sapiens, UniProt P63165). The experiment can be described thus: SUMO1 protein-protein binding blockers, potency – biochemical, FRET, dose response (AID 624383). In kind it is functional. To be noted: read-out: IC50_Mean.
T3 sequence (P63165 whole entry): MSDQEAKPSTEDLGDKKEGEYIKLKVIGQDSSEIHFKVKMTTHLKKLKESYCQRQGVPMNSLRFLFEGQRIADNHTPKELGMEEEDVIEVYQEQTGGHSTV
Experiment [12] has as its target T3, Small ubiquitin-related modifier 1. The experiment can be described thus: SUMO1 protein interaction blockers, potency – biochemical, fluorescence polarization, uHTS hits, dose response (AID 624382). The note with it: read-out: IC50_Mean. The class given is functional. For orientation: Polarisation of emitted light reports the rotation of a fluorescent probe.

Experiment [13] has as its target T4, Tyrosine-protein phosphatase non-receptor type 22 (Homo sapiens, UniProt Q9Y2R2).
T4 sequence (Q9Y2R2 whole entry): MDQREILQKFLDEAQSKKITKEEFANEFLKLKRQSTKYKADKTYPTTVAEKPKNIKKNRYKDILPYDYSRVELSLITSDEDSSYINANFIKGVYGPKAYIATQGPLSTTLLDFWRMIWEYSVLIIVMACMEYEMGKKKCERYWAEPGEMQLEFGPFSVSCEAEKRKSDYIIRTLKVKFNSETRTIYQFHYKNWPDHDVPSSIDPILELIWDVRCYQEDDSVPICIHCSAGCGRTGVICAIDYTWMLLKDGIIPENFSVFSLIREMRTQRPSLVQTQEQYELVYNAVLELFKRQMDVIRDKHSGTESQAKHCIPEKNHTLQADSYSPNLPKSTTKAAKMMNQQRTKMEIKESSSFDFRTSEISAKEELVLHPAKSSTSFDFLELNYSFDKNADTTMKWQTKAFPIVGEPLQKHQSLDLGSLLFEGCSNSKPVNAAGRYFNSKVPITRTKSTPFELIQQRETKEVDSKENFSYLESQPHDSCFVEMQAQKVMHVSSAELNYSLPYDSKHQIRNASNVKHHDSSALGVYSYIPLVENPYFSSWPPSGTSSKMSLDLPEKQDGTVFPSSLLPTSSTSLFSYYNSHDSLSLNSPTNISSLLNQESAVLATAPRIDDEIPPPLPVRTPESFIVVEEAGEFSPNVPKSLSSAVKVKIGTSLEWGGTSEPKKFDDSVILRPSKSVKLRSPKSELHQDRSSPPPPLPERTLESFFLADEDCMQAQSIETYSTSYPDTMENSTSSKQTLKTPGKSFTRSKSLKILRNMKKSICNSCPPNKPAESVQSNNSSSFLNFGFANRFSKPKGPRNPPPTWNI
The experiment can be described thus: PTPN22 enzyme inhibitors – biochemical, fluorescence, LYP catalytic domain, selectivity assay for LMPTP inhibitor project, dose response (AID 652006). The class given is functional. The note with it: read-out: IC50_Mean.

Experiment [14] addresses T5, Low molecular weight phosphotyrosine protein phosphatase (Homo sapiens, UniProt P24666).
T5 sequence (P24666 whole entry): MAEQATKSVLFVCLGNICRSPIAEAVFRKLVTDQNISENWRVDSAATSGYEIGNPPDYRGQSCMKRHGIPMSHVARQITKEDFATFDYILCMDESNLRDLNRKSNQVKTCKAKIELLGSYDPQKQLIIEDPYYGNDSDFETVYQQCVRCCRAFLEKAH
In kind it is functional. To be noted: read-out: IC50_Mean.

The target in experiment [15] is Arf-GAP with SH3 domain, ANK repeat and PH domain-containing protein 1 (Homo sapiens, UniProt Q9ULH1). The class given is functional.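 Note: biochemical fluorescence polarization dose–response screen measuring inhibition of ASAP1; ASAP1 GAP domain stimulating GTP hydrolysis by truncated human ARF1.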
Chain of Arf-GAP with SH3 domain, ANK repeat and PH domain-containing protein 1 (Q9ULH1 whole entry, the tested form may be a part): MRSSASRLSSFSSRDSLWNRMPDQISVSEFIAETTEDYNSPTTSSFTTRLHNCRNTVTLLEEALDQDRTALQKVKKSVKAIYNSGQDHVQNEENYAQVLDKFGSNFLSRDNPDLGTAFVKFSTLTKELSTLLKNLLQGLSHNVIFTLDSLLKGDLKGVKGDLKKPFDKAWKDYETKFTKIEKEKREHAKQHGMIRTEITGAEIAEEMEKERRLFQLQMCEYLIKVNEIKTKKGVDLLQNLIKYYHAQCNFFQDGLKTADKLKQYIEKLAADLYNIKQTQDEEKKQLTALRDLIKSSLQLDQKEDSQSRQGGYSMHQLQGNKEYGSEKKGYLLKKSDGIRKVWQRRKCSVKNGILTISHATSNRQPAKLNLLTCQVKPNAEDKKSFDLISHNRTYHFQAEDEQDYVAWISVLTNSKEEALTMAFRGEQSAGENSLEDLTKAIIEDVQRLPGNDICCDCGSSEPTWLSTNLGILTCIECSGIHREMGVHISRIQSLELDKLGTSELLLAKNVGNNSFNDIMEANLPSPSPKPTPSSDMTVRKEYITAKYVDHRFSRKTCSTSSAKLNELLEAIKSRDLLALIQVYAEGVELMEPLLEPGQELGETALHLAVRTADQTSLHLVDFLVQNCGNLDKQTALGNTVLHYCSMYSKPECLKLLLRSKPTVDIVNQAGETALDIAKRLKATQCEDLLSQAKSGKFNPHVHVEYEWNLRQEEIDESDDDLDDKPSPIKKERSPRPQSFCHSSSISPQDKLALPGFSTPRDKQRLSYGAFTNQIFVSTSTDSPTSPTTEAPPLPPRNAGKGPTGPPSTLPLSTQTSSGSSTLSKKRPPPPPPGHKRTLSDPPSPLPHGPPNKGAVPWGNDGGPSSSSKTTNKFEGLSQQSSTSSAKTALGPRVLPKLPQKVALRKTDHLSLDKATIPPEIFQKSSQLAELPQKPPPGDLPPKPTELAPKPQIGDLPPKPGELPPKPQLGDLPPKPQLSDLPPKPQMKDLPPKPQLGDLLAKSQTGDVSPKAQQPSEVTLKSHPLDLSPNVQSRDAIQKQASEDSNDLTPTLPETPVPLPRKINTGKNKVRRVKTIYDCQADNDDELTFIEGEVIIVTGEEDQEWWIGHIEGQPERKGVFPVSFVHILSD
For experiment [16], the target named is T6, Carboxy-terminal domain RNA polymerase II polypeptide A small phosphatase 1 (Homo sapiens, UniProt Q9GZU7).
T6 sequence (Q9GZU7 whole entry): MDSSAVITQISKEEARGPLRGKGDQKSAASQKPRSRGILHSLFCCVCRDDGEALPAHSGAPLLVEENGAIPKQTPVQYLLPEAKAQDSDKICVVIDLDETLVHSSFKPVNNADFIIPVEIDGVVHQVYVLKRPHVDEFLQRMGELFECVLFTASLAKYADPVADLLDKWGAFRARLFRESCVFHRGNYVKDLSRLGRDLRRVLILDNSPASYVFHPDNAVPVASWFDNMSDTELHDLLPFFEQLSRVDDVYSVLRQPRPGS
The experiment can be described thus: CTDSP1 inhibitors, concentration-response, biochemical, absorbance readout, ultra-high-throughput screen actives (AID 540297). The class given is functional.

The target of experiment [17] is Steroidogenic factor 1 (Homo sapiens, UniProt Q13285). The experiment can be described thus: Counterscreen for inverse agonists of the liver receptor homolog-1 (LRH-1; NR5A2): Luminescence-based cell-based high throughput dose response assay to identify inverse agonists of the Steroidogenic Factor 1 Nuclear Receptor (SF1; NR5A1). In kind it is functional. A general note: Counterscreens check selectivity or assay interference.
Chain of Steroidogenic factor 1 (Q13285 whole entry): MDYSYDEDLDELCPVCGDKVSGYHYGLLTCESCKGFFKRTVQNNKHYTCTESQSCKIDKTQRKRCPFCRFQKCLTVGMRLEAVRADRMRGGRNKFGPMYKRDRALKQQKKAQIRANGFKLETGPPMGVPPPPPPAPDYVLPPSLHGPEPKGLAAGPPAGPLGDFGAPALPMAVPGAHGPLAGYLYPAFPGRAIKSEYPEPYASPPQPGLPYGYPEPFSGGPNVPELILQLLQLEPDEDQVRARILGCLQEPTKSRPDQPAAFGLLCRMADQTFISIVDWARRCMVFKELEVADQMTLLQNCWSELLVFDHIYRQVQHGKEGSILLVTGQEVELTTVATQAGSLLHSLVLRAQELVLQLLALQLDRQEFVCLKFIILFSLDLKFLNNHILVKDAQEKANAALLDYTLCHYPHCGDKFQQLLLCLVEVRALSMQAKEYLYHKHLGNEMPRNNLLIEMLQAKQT

A short description of experiment [18]: nonselective StAR promoter luciferase inhibitors – cell-based, luminescence, luciferase reporter, counter-screen for LRH-1 inverse agonist project, dose response (AID 651969). The class given is functional.
Experiment [19] has as its target Nuclear receptor subfamily 5 group A member 2 (Homo sapiens, UniProt O00482). The class given is functional, cell-based.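 Note: HEK293T cells transfected with LRH-1 and a StAR promoter luciferase reporter; potency for inhibitors that lower LRH-1 driven reporter light.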

Structures are written as SMILES. Where a name gives a salt, the structure may show the parent alone. Active and inactive are the calls of the source. Some results are limits rather than exact numbers.

T1 sequence (Q9P0U3 whole entry, the tested form may be a part): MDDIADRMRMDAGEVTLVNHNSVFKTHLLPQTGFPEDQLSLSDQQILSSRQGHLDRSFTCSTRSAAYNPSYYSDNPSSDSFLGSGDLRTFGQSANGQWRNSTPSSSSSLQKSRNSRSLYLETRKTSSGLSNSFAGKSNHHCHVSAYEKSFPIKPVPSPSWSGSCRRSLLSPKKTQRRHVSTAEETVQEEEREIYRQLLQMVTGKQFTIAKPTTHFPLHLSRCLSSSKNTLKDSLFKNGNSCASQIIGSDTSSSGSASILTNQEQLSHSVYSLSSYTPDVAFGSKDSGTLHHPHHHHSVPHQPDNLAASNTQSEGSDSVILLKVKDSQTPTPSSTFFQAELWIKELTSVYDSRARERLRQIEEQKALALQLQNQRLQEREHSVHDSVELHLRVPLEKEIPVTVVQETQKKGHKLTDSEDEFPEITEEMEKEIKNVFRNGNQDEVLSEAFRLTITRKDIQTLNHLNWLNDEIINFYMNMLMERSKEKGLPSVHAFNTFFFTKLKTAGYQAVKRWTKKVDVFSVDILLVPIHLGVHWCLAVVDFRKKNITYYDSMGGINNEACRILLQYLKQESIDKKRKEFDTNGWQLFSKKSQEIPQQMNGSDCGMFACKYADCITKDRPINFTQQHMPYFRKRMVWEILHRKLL
Chain of Broad substrate specificity ATP-binding cassette transporter ABCG2 (Q9UNQ0 whole entry): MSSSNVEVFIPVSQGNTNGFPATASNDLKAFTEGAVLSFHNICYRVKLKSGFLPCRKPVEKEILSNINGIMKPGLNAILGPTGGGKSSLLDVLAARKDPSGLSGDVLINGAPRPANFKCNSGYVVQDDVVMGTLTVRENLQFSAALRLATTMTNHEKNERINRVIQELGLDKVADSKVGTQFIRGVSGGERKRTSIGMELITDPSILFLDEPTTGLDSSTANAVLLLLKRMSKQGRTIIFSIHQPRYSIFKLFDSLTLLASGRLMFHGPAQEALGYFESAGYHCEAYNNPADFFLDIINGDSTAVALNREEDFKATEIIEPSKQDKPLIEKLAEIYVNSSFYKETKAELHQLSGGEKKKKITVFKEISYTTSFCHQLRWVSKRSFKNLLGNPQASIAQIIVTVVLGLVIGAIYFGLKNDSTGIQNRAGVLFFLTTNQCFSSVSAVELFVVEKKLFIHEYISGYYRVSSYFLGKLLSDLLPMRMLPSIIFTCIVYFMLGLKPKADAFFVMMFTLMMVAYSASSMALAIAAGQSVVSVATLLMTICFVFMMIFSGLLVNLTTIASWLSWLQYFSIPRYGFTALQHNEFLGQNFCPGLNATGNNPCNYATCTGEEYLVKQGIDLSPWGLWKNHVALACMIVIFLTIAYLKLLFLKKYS
Chain of Nuclear receptor subfamily 5 group A member 2 (O00482 whole entry): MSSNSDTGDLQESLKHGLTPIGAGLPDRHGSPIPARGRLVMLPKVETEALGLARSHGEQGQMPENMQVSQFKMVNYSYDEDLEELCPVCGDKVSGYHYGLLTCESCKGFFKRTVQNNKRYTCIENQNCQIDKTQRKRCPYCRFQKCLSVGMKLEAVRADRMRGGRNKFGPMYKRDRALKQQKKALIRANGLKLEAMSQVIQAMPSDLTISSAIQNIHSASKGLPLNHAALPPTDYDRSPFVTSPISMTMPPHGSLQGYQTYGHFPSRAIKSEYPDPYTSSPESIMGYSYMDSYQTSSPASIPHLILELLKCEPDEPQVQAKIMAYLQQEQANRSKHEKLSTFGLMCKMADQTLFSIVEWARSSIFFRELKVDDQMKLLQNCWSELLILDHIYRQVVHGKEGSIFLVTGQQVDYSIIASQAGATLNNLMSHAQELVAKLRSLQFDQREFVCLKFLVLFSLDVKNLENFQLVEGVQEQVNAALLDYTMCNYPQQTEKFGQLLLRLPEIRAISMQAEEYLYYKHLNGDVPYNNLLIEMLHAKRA

On to `C=CCOc1c(Br)cc(/C=C2/N=C(S)N(C(C)=O)C2=O)cc1OC`, for which the IC50 in experiment [1] is 8.78 µM (active); in experiment [2], 7.01 µM (active).

As a reminder, the EC50 is the concentration that produces a half-maximal response. With `O=[N+]([O-])c1ccccc1-c1nc(-c2ccc(Br)o2)no1`, the concentration giving a half-maximal response (EC50) in experiment [3] is 0.302 µM (active); in experiment [4], > 120 µM (not active); in experiment [5], < 0.1 µM (active); in experiment [6], 4.88 µM (active); in [7] it was 28.2 µM (inactive); in experiment [9], 0.364 µM (active). Also, the EC50 in experiment [10] is 0.252 µM (active). The IC50 in experiment [8] was 69.1 µM (inactive).

In the case of `O=C(COC(=O)c1nc(Cl)ccc1Cl)Nc1ccc2[nH]c(O)nc2c1`, the IC50 in experiment [11] was 20.8 µM (inactive); in [12], > 66.6 µM (inactive).

With `COc1cccc2c1[C@@H]1CN(CCCCn3c(=O)[nH]c4c(sc5ncc(-c6ccccc6)nc54)c3=O)C[C@@H]1CO2` [FIDUXOSIN HYDROCHLORIDE], the IC50 in experiment [13] was 24.7 µM (inactive); in [14], 13.2 µM (active).

Consider `COc1ccc2cc(C(=O)Nc3ccc(Cl)cc3)sc(=O)c2c1OC`, for which the IC50 in [15] is 12.6 µM (inactive); in [16], 3.51 µM (active).

For `Cc1cc(OCC(=O)NCc2cccnc2)c2c(C)c(C)c(=O)oc2c1`, the IC50 in [17] was 2.35 µM (active); in experiment [18] it was 35.9 µM (inactive); in experiment [19] it was 2.88 µM (active).
